Where only a bound is given, the exact number is not on record here.

Test [1] has as its target Luciferin 4-monooxygenase (Photinus pyralis) (UniProt P08659). Kind of test: Inhibition of recombinant firefly luciferase at 10 uM after 20 mins by luminescence assay.
For test [2] the target is unchanged. The test is described as follows: Inhibition of recombinant firefly luciferase at 1 nM after 20 mins by luminescence assay.
The target in test [3] is Luciferin 4-monooxygenase (Photinus pyralis, UniProt P08659). The test is described as follows: Inhibition of recombinant firefly luciferase after 20 mins by luminescence assay.
Luciferin 4-monooxygenase, sequence (P08659 whole entry): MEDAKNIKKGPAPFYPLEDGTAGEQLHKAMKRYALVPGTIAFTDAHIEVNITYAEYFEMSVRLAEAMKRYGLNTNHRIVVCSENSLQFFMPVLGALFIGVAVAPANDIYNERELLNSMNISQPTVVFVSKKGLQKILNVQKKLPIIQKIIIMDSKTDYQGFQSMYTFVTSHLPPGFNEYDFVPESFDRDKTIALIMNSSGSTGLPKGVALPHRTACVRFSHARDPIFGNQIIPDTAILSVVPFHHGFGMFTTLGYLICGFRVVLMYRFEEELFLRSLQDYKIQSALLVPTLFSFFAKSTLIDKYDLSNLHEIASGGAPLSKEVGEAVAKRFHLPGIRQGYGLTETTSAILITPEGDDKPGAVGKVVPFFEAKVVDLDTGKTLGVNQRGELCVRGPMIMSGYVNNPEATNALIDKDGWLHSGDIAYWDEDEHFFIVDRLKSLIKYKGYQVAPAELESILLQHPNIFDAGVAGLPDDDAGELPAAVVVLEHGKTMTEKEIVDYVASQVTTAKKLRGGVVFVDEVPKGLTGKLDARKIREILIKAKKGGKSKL

Luciferin 4-monooxygenase (Photinus pyralis), sequence (P08659 whole entry): as above

Regarding `Oc1cccc(C2=NO[C@@H](Cc3ccccc3)C2)c1`, the inhibition in test [1] was 71.5%; in test [2], 6.7%. Moreover, the IC50 in test [3] is 2190 nM.

Turning to `Clc1ccccc1C1=NOC(Cc2ccccc2)C1` (racemic), the figures for the inhibition in test [1] and in test [2] were 99.8% and 50.7%, respectively. For the same compound, the IC50 in test [3] is 0.933 nM.

Consider `Fc1ccccc1C1=NOC(Cc2ccccc2)O1` (racemic), for which the inhibition is 98% in test [1] and 38.8% in test [2]. Further, in test [3], the half-inhibitory concentration (IC50) was 2.82 nM.

`CCc1ccc(C[C@H]2CC(c3ccc(Cl)cc3)=NO2)cc1`: the inhibition in test [1] is 50.2%; in test [2], 2.5%. Also, in test [3], the IC50 was 8710 nM.

On to `Clc1ccc(C2=NOC(CCc3ccccc3)C2)cc1` (racemic), for which the inhibition in test [1] came out at 64.2%; in test [2], 1.5%. Further, in test [3], the concentration for half-maximal inhibition (IC50) was 3240 nM.

As to `N#Cc1ccc(C2=NO[C@H](Cc3ccccc3)C2)cc1`, the inhibition in test [1] is 99.2%; in test [2], 53.6%. For the same compound, the IC50 in test [3] was 0.891 nM.

Regarding `COc1ccc(C2=NOC(C)(Cc3ccccc3)C2)cc1` (racemic), the values for the inhibition in test [1] and in test [2] were 97.6% and 20.3%, respectively. Besides, the IC50 in test [3] was 21.9 nM.

As for `COc1cccc(C2=NO[C@H](Cc3ccccc3)C2)c1`, the inhibition came out at 99.4% in test [1] and 65.9% in test [2]. In test [3], the IC50 is 0.398 nM.

As for `Fc1ccccc1C1=NO[C@@H](Cc2ccccc2)C1`, the inhibition in test [1] was 83%; in test [2] it was 11.3%. The IC50 in test [3] is 1020 nM.

In the case of `Fc1cccc(C2=NO[C@H](Cc3ccccc3)C2)c1`, the inhibition in test [1] is 98.2%; in test [2], 61.6%. Moreover, the IC50 in test [3] was 0.955 nM.

As to `CCc1ccc(C[C@@H]2CC(c3ccc(Cl)cc3)=NO2)cc1`, the inhibition in test [1] was found to be 29.4%; in test [2], 6.3%. In addition, in test [3], the pIC50 is on record as over 5.

Consider `COc1ccccc1C1=NO[C@H](Cc2ccccc2)C1`, for which the inhibition amounted to 99.4% in test [1] and 51.7% in test [2]. The 50% inhibitory concentration (IC50) in test [3] is 0.912 nM.

For `Clc1ccc(C2=NO[C@@H](Cc3cccc4ccccc34)C2)cc1`, the inhibition in test [1] came out at 36.6%; in test [2], 1.9%. The negative logarithm of the IC50 (pIC50) in test [3] is over 5.

`COc1ccc(C2=NO[C@H](CCc3ccccc3)C2)cc1`: the inhibition in test [1] was determined as 96%; in test [2], 30.5%. Moreover, the IC50 in test [3] is 13.8 nM.

Turning to `Fc1ccccc1C1=NO[C@H](Cc2ccccc2)C1`, the inhibition was determined as 99.3% in test [1] and 57.9% in test [2]. Besides, in test [3], the IC50 was 0.955 nM.

Consider `COc1ccc(C2=NO[C@@H](Cc3ccc(F)cc3)C2)cc1`, for which the inhibition was 41.3% in test [1] and -1.9% in test [2]. Besides, in test [3], the pIC50 is on record as over 5.

For `COc1cccc(C2=NO[C@@H](Cc3ccccc3)C2)c1`, the inhibition in test [1] was determined as 75.3%; in test [2], 9.6%. Moreover, the IC50 in test [3] was 1950 nM.

`COc1ccc(C2=NO[C@@H](Cc3ccccc3)C2)cc1`: the figures for the inhibition in test [1] and in test [2] were 68% and 6.4%, respectively. Moreover, the IC50 in test [3] is 2450 nM.

For the compound `COc1ccccc1C1=NO[C@H](Cc2ccccc2)O1`, the figures for the inhibition in test [1] and in test [2] were 98.2% and 48.3%, respectively. Besides, the IC50 in test [3] was 2.14 nM.

Take `COc1ccc(C2=NO[C@H](Cc3ccc(F)cc3)C2)cc1`: the inhibition in test [1] is 100%; in test [2], 26.7%. Besides, in test [3], the IC50 is 10.5 nM.

In the case of `Clc1cccc(C2=NOC(Cc3ccccc3)C2)c1` (racemic), the inhibition was 94.8% in test [1] and 26.1% in test [2]. Moreover, the IC50 in test [3] was 15.1 nM.

Regarding `Clc1ccc(C2=NO[C@H](Cc3cccc4ccccc34)C2)cc1`, the values for the inhibition in test [1] and in test [2] were 40.9% and 2%, respectively. Besides, the pIC50 in test [3] is reported as over 5.

Consider `COc1ccc(C2=NO[C@H](Cc3ccccc3)O2)cc1`, for which the inhibition in test [1] was found to be 99.5%; in test [2], 56.1%. In test [3], the concentration for half-maximal inhibition (IC50) is 0.955 nM.

`COc1ccc(C2=NO[C@@H](Cc3ccccc3)O2)cc1`: the inhibition in test [1] came out at 98.6%; in test [2], 42%. Moreover, the IC50 in test [3] was 5.25 nM.

Consider `c1ccc(C[C@H]2CC(c3ccccc3)=NO2)cc1`, for which the results for the inhibition in test [1] and in test [2] were 94.9% and 6.5%, respectively. In test [3], the IC50 was 174 nM.

As for `COc1ccc(C[C@@H]2CC(c3ccc(OC)cc3)=NO2)cc1`, the inhibition in test [1] was found to be 37.4%; in test [2] it was 3.1%. Also, in test [3], the pIC50 is reported as over 5.

`COc1ccc(C2=NO[C@@H](Cc3cccc(OC)c3)C2)cc1`: the inhibition in test [1] was found to be 25.5%; in test [2], 4%. Further, the pIC50 in test [3] is listed as over 5.

On to `COc1ccc(C2=NO[C@@H](CCc3ccccc3)C2)cc1`, for which the inhibition in test [1] turned out to be 6.8%; in test [2] it was 2.5%.

For the compound `COc1ccccc1CC1CC(c2ccc(Cl)cc2)=NO1` (racemic), the inhibition in test [1] came out at 91.8%; in test [2], 29.8%. The IC50 in test [3] is 16.2 nM.

In the case of `Oc1ccc(C2=NO[C@@H](Cc3ccccc3)C2)cc1`, the values for the inhibition in test [1] and in test [2] were 42.8% and 5.3%, respectively. In test [3], the pIC50 was over 5.

Regarding `Fc1cccc(C2=NO[C@@H](Cc3ccccc3)C2)c1`, the inhibition was 84.1% in test [1] and -3.7% in test [2]. For the same compound, the concentration for half-maximal inhibition (IC50) in test [3] is 1000 nM.

For the compound `COc1ccc(C[C@H]2CC(c3ccc(OC)cc3)=NO2)cc1`, the inhibition in test [1] came to 3.1%; in test [2], 3.3%.

For the compound `CC(C)c1ccc(C[C@H]2CC(c3ccc(Cl)cc3)=NO2)cc1`, the results for the inhibition in test [1] and in test [2] were 31.9% and 1.7%, respectively. Further, in test [3], the pIC50 is given as over 5.

For the compound `O=[N+]([O-])c1ccc(C2=NOC(Cc3ccccc3)C2)cc1` (racemic), the inhibition in test [1] came out at 96.4%; in test [2] it was 63.9%. The IC50 in test [3] was 0.741 nM.

Regarding `COc1cccc(C[C@@H]2CC(c3ccc(Cl)cc3)=NO2)c1`, the inhibition was determined as 96.7% in test [1] and 20.6% in test [2]. The IC50 in test [3] was 17 nM.

For the compound `c1ccc(C[C@@H]2CC(c3ccc4ccccc4c3)=NO2)cc1`, the results for the inhibition in test [1] and in test [2] were 97% and 13.4%, respectively. Moreover, in test [3], the IC50 was 87.1 nM.

Take `COc1ccc(C2=NO[C@H](Cc3cccc(OC)c3)C2)cc1`: the results for the inhibition in test [1] and in test [2] were 98.7% and 43.8%, respectively. In addition, the IC50 in test [3] is 1.17 nM.

With `COc1ccc(C2=NO[C@@H](Cc3ccccc3OC)C2)cc1`, the figures for the inhibition in test [1] and in test [2] were 67.1% and 6.1%, respectively. Also, the IC50 in test [3] was 2190 nM.

Consider `Oc1ccc(/C=C/c2cc(O)cc(O)c2)cc1`, for which the inhibition in test [1] is 99.6%; in test [2] it was 6.8%.

With `c1ccc(C[C@@H]2CC(c3cccc4ccccc34)=NO2)cc1`, the inhibition in test [1] amounted to 62.2%; in test [2], 3%. For the same compound, the IC50 in test [3] is 2510 nM.

Take `Clc1ccccc1C1=NOC(Cc2ccccc2)O1` (racemic): the inhibition in test [1] is 99.6%; in test [2], 68.5%. The IC50 in test [3] was 0.525 nM.

Take `COc1ccc(C[C@@H]2CC(c3ccc(Cl)cc3)=NO2)cc1`: the inhibition was determined as 30.4% in test [1] and 3.8% in test [2]. The pIC50 in test [3] is recorded as over 5.

For the compound `Fc1ccc(C[C@H]2CC(c3ccc(Cl)cc3)=NO2)cc1`, the inhibition in test [1] turned out to be 86.8%; in test [2], 1.4%. Further, the IC50 in test [3] is 603 nM.

In the case of `COc1ccc(C[C@H]2CC(c3ccc(Cl)cc3)=NO2)cc1`, the inhibition in test [1] was determined as 1.7%; in test [2], 1%.

In the case of `COc1cccc(C[C@H]2CC(c3ccc(Cl)cc3)=NO2)c1`, the figures for the inhibition in test [1] and in test [2] were 33.6% and 1.1%, respectively. Further, the pIC50 in test [3] is recorded as over 5.

As for `COc1ccccc1C1=NO[C@@H](Cc2ccccc2)O1`, the inhibition in test [1] came out at 63.3%; in test [2] it was 5%. Also, in test [3], the IC50 is 4270 nM.

Take `Oc1ccc(C2=NO[C@H](Cc3ccccc3)C2)cc1`: the inhibition in test [1] was 93.3%; in test [2], 13.1%. The IC50 in test [3] was 316 nM.

On to `CC1(Cc2ccccc2)CC(c2ccc(Cl)cc2)=NO1` (racemic), for which the inhibition worked out at 95.8% in test [1] and 28.7% in test [2]. Further, the IC50 in test [3] is 32.4 nM.

For `c1ccc(C[C@H]2CC(c3cccc4ccccc34)=NO2)cc1`, the inhibition in test [1] is 41.5%; in test [2] it was 5.5%. Also, the pIC50 in test [3] was over 5.

In the case of `COc1ccc(CC2CC(c3ccc(Cl)cc3)=NO2)cc1OC` (racemic), the inhibition in test [1] is 2.2%; in test [2], 0.9%.

`Oc1ccccc1C1=NO[C@@H](Cc2ccccc2)C1`: the values for the inhibition in test [1] and in test [2] were 79.7% and 8.9%, respectively. In addition, the IC50 in test [3] was 1120 nM.

Regarding `c1ccc(C[C@@H]2CC(c3ccccc3)=NO2)cc1`, the figures for the inhibition in test [1] and in test [2] were 99.5% and 47.1%, respectively. The IC50 in test [3] is 1.58 nM.

As to `COc1ccccc1C1=NO[C@@H](Cc2ccccc2)C1`, the values for the inhibition in test [1] and in test [2] were 57.5% and 5.2%, respectively. Besides, the IC50 in test [3] is 6920 nM.

As for `Fc1ccc(C2=NO[C@@H](Cc3ccccc3)C2)cc1`, the values for the inhibition in test [1] and in test [2] were 85.6% and 7.7%, respectively. The IC50 in test [3] was 741 nM.

As for `Fc1ccc(C[C@@H]2CC(c3ccc(Cl)cc3)=NO2)cc1`, the inhibition in test [1] worked out at 99.2%; in test [2], 53%. In test [3], the IC50 is 0.871 nM.

Consider `Clc1ccc(C2=NO[C@@H](Cc3ccccc3)C2)cc1`, for which the figures for the inhibition in test [1] and in test [2] were 88.3% and 17.7%, respectively. In test [3], the IC50 is 417 nM.

As for `N#Cc1ccc(C2=NO[C@@H](Cc3ccccc3)C2)cc1`, the inhibition in test [1] was 88.3%; in test [2] it was 14.7%. For the same compound, the IC50 in test [3] is 331 nM.

Turning to `CC(C)c1ccc(C[C@@H]2CC(c3ccc(Cl)cc3)=NO2)cc1`, the inhibition in test [1] turned out to be 0.7%; in test [2] it was 0.4%.

As to `Oc1cccc(C2=NO[C@H](Cc3ccccc3)C2)c1`, the inhibition in test [1] is 99.7%; in test [2] it was 47%. In addition, the IC50 in test [3] is 0.832 nM.

Values taken from ChEMBL document CHEMBL2321784, “Discovery of 5-benzyl-3-phenyl-4,5-dihydroisoxazoles and 5-benzyl-3-phenyl-1,4,2-dioxazoles as potent firefly luciferase inhibitors” (J Med Chem, 2013).
